Measured values from patent publication US8815590B2, “Composition and method for differentiation of human embryonic stem cells” (Stem Cells for Safer Medicines Limited, priority 2009, dated 2014).

Tests used:
Human ESCs [SHEF3] = test: Colony morphology, RT-PCR and Western blot of OCT4/NANOG in treated human ESCs; assay type: cell-based
Procedure: Human ESCs [SHEF3] were treated with the indicated concentrations of BIO or compound 1M or left untreated as a control and cultured for 7 days. (A) Images show typical colonies formed following the indicated treatments. The scale bars represent 1 mm. (B) Histogram plots of ESCs analysed by flow cytometry following immunostaining with antibodies against the pluripotency markers Tra-1-60 or SSEA4. (C) RNA was extracted from the cells and RT-PCR analyses performed using primers specific to the pluripotency genes OCT4 and NANOG and to the house-keeping gene β-ACTIN. (D) Western blot analysis was performed on protein extracted from the cells and immunoblotted with antibodies specific to Oct4. Blots were stripped and reprobed with anti-Gapdh antibodies to assess equal loading. (E) Compound 1O also induces differentiation of human ESCs. SHEF3 cells were treated with the indicated concentration of 1O for 7 days. Images show typical colony morphology. (F) Histogram plots of ESCs analysed by flow cytometry following staining with Tra-1-60 and SSEA4 antibodies. Analysis of percent positive cells and mean fluorescent intensity are indicated on the plots. (G) RT PCR analysis for the expression of OCT4 and NANOG. Bands for each of the genes were from the same gel with intervening samples removed. (H) Western blot analysis of OCT4 protein expression. Proteins bands were from the same immunoblot with intervening samples removed.
SHEF1 and SHEF3 human ESCs were obtained from the UKSCB and cultured as outlined in their protocols. Briefly, ESCs were maintained on mitomycin C-inactivated mouse embryonic fibroblast (MEF) feeder layers in KnockOut Dulbecco's modified Eagle's medium (KO DMEM) (Invitrogen) supplemented with 20% (vol/vol) KO serum replacement (KOSR; Invitrogen), 1 mM non-essential amino acids (NEAA; Invitrogen), 1 mM glutamine (Invitrogen), 0.1 mM 2-mercaptoethanol (BioRad), penicillin/streptomycin, and 4 ng/ml recombinant human FGF2 (Peprotech). Cultures were passage using 1 mg/ml collagenase at a ratio of 1:8 to 1:12 every 7 days. Cultures were transferred to a feeder-free, chemically defined culture system on ESC-qualified Matrigel® (BD) coated plates in mTeSR1® (Stem Cell Technologies) media according to Stem Cell Technologies' protocol.
(§1) Total RNA was isolated and purified using TRIzol Reagent (Invitrogen), following the manufacturer's instructions. All RNA samples were treated with DNase I (Ambion) before cDNA synthesis to eliminate any contaminating genomic DNA. RNA (1 μg) was reverse transcribed into cDNA using Oligo(dT)15 (Promega) and SuperScript II (Invitrogen). Gene-specific PCR was carried out using primers and annealing temperatures outlined in Table 2.
Cell lysates (20 μg) were prepared, separated by SDS-PAGE and transferred to nitrocellulose as described previously (Welham et al., 1994). Immunoblotting was carried out using primary antibodies at the following dilutions: 1:5,000 anti-Oct4 (Santa Cruz Biotechnology; sc-9081); 1:2000 anti-GAPDH (sc-20357); 1:10,000 anti-phospho (Ser33/37/Thr41) β-catenin (Cell signalling Technology; CST 9561); 1:1000 anti-β-catenin (CST 9562). Anti-rabbit antibodies conjugated to horseradish peroxidise (DAKO) were used at 1:10,000 and blots were developed using ECL Advance (GE Healthcare) or ChemiGlow (Alpha Innotech) according to manufacturer's directions. Images were captured and analysed using the ImageQuant RT ECL system (GE Healthcare). Blots were stripped and reprobed as described previously (Welham et al., 1994).

ESCs [SHEF1] = test: RT-PCR of Activin/Nodal pathway and differentiation marker genes; assay type: cell-based, human; settings: 2 μM, after 1 day, maintained up to 3 days, basal by day 7
Procedure: (A) RNA was extracted from ESCs [SHEF1] cultured for 7 days in the presence of 2 μM 1M for the days indicated. RT-PCR analyses were performed using primers selective for the genes indicated. (B) ESCs [SHEF1] were treated with 2 μM 1M alone or in combination with 10 μM SB43125 (S) for the days indicated and RT-PCR performed on the extracted RNA. (C) ESCs [SHEF3] were treated with 1M alone or in combination with 100 ng/ml Activin A (A) for the days indicated and RT-PCR performed. (D). ESCs [SHEF1] were treated with 2 μM 1M, or 100 ng/ml ActivinA (A) alone or in combination with 1M for 5 days. Expression of the endoderm markers FoxA2 and HNF4α was analysed by immunofluorescence. The number of percent positive cells averaged from 3 fields of view +/−SD are indicated. Scale bar represents 50 μm. (E) ESCs [SHEF1] were treated with 2 μM 1M, or 100 ng/ml ActivinA (A) alone or in combination with 1M for 5 days. Expression of the DE marker CXCR4 was alaysed by flow cytometry.
as §1

GSK-3 = test: Phospho-β-catenin immunoblot and TOPFlash luciferase reporter assay in human ESCs; assay type: cell-based; settings: 30 min (immunoblot) or 24 hr (TOPFlash)
Procedure: (A) ESCs [SHEF3] were cultured on MEFs or on Matrigel® in mTeSR1® media and treated with BIO or 1M for 30 min. Protein extracts were prepared and immunoblotting was performed using antibodies detecting the phosphorylated form of […]. The same immunoblot in each case was reprobed for total β-catenin to assess loading. (B) TOPFlash luciferase reporter assay of ESCs [SHEF1] treated for 24 hr with BIO or 1M at the indicated concentrations. Luciferase activity is expressed as a fold increase in activation compared with the normalised TOPFlash luciferase activity in untreated (Con) cells. Data represent the mean+/−SEM of 3 independent experiments.
Cell lysates (20 μg) were prepared, separated by SDS-PAGE and transferred to nitrocellulose as described previously (Welham et al., 1994). […] Images were captured and analysed using the ImageQuant RT ECL system (GE Healthcare). […]
The TOPFlash luciferase reporter plasmid (containing four consensus TCF binding sites upstream of the c-fos minimal promoter, driving expression of a firefly luciferase reporter) and its negative control plasmid FOPFlash (containing four mutant TCF binding sites) were provided by Dr C. […] Cell extracts were prepared and firefly and Renilla luciferase activities were determined using the dual-luciferase reporter assay system according to the manufacturer's instructions (Promega). […]

O=C1NC(=O)C2=C1c1cn(c3ccccc13)CCOCCOCCOCCOCCn1cc2c2ccccc21 [1M]
OCT4 and NANOG gene expression (RT-PCR) (Human ESCs [SHEF3]; 7 days treatment): loss of the pluripotency markers OCT4 and NANOG | Oct4 protein expression (Western blot) (Human ESCs [SHEF3]; 7 days treatment): loss of Oct4 protein expression | Proliferation and differentiation of human ESCs (colony morphology) (Human ESCs [SHEF3]; 7 days, on MEFs in KO DMEM or on Matrigel in mTeSR1, 1M at 2 μM): dramatic increase in proliferation and differentiation | NODAL gene expression (ESCs [SHEF1]): increase in NODAL gene expression | GSK-3-mediated signaling (β-catenin phosphorylation, TOPFlash activity) (GSK-3): inhibits GSK-3-mediated signaling
